Reference: ChEMBL document CHEMBL4219224, “Structure based drug design and in vitro metabolism study: Discovery of N-(4-methylthiophenyl)-N,2-dimethyl-cyclopenta[d]pyrimidine as a potent microtubule targeting agent” (Bioorg Med Chem, 2018)

Tests used:
Type in all cases: functional
A549 = assay: Growth inhibition of human A549/ATCC cells incubated for 48 hrs by sulforhodamine B assay; details: A549, 48 h
EKVX = assay: Growth inhibition of human EKVX cells incubated for 48 hrs by sulforhodamine B assay
HOP-62 = assay: Growth inhibition of human HOP62 cells incubated for 48 hrs by sulforhodamine B assay; details: HOP-62, 48 h
HOP-92 = assay: Growth inhibition of human HOP92 cells incubated for 48 hrs by sulforhodamine B assay; details: HOP-92, 48 h
NCI-H226 = assay: Growth inhibition of human NCI-H226 cells incubated for 48 hrs by sulforhodamine B assay; details: NCI-H226, 48 h
NCI-H23 = assay: Growth inhibition of human NCI-H23 cells incubated for 48 hrs by sulforhodamine B assay; details: NCI-H23, 48 h
NCI-H322M = assay: Growth inhibition of human NCI-H322M cells incubated for 48 hrs by sulforhodamine B assay
NCI-H460 = assay: Growth inhibition of human NCI-H460 cells incubated for 48 hrs by sulforhodamine B assay; details: NCI-H460, 48 h
NCI-H522 = assay: Growth inhibition of human NCI-H522 cells incubated for 48 hrs by sulforhodamine B assay; details: NCI-H522, 48 h
SF-268 = assay: Growth inhibition of human SF268 cells incubated for 48 hrs by sulforhodamine B assay; details: SF-268, 48 h
SF-295 = assay: Growth inhibition of human SF295 cells incubated for 48 hrs by sulforhodamine B assay; details: SF-295, 48 h
SF-539 = assay: Growth inhibition of human SF539 cells incubated for 48 hrs by sulforhodamine B assay; details: SF-539, 48 h
SNB-19 = assay: Growth inhibition of human SNB19 cells incubated for 48 hrs by sulforhodamine B assay; details: SNB-19, 48 h
SNB-75 = assay: Growth inhibition of human SNB75 cells incubated for 48 hrs by sulforhodamine B assay; details: SNB-75, 48 h
U-251 = assay: Growth inhibition of human U251 cells incubated for 48 hrs by sulforhodamine B assay; details: U-251, 48 h
786-0 = assay: Growth inhibition of human 786-0 cells incubated for 48 hrs by sulforhodamine B assay; details: 786-0, 48 h
A498 = assay: Growth inhibition of human A498 cells incubated for 48 hrs by sulforhodamine B assay; details: A498, 48 h
ACHN = assay: Growth inhibition of human ACHN cells incubated for 48 hrs by sulforhodamine B assay
CAKI-1 = assay: Growth inhibition of human Caki1 cells incubated for 48 hrs by sulforhodamine B assay; details: CAKI-1, 48 h
RXF 393 = assay: Growth inhibition of human RXF393 cells incubated for 48 hrs by sulforhodamine B assay; details: RXF 393, 48 h
SN12C = assay: Growth inhibition of human SN12C cells incubated for 48 hrs by sulforhodamine B assay
TK-10 = assay: Growth inhibition of human TK10 cells incubated for 48 hrs by sulforhodamine B assay; details: TK-10, 48 h
UO-31 = assay: Growth inhibition of human UO31 cells incubated for 48 hrs by sulforhodamine B assay; details: UO-31, 48 h
COLO 205 = assay: Growth inhibition of human COLO205 cells incubated for 48 hrs by sulforhodamine B assay; details: COLO 205, 48 h
HCC 2998 = assay: Growth inhibition of human HCC2998 cells incubated for 48 hrs by sulforhodamine B assay; details: HCC 2998, 48 h
HCT-116 = assay: Growth inhibition of human HCT116 cells incubated for 48 hrs by sulforhodamine B assay; details: HCT-116, 48 h
HCT-15 = assay: Growth inhibition of human HCT15 cells incubated for 48 hrs by sulforhodamine B assay; details: HCT-15, 48 h
HT-29 = assay: Growth inhibition of human HT-29 cells incubated for 48 hrs by sulforhodamine B assay; details: HT-29, 48 h
KM12 = assay: Growth inhibition of human KM12 cells incubated for 48 hrs by sulforhodamine B assay; details: KM12, 48 h
SW-620 = assay: Growth inhibition of human SW620 cells incubated for 48 hrs by sulforhodamine B assay; details: SW-620, 48 h
IGROV-1 = assay: Growth inhibition of human IGROV1 cells incubated for 48 hrs by sulforhodamine B assay; details: IGROV-1, 48 h
OVCAR-3 = assay: Growth inhibition of human OVCAR3 cells incubated for 48 hrs by sulforhodamine B assay; details: OVCAR-3, 48 h
OVCAR-4 = assay: Growth inhibition of human OVCAR4 cells incubated for 48 hrs by sulforhodamine B assay; details: OVCAR-4, 48 h
OVCAR-5 = assay: Growth inhibition of human OVCAR5 cells incubated for 48 hrs by sulforhodamine B assay; details: OVCAR-5, 48 h
OVCAR-8 = assay: Growth inhibition of human OVCAR8 cells incubated for 48 hrs by sulforhodamine B assay; details: OVCAR-8, 48 h
NCI/ADR-RES = assay: Growth inhibition of human NCI/ADR-RES cells incubated for 48 hrs by sulforhodamine B assay
SK-OV-3 = assay: Growth inhibition of human SKOV3 cells incubated for 48 hrs by sulforhodamine B assay; details: SK-OV-3, 48 h
LOX IMVI = assay: Growth inhibition of human LOXIMVI cells incubated for 48 hrs by sulforhodamine B assay
Malme-3M = assay: Growth inhibition of human MALME-3M cells incubated for 48 hrs by sulforhodamine B assay
M14 = assay: Growth inhibition of human M14 cells incubated for 48 hrs by sulforhodamine B assay; details: M14, 48 h
MDA-MB-435 = assay: Growth inhibition of human MDA-MB-435 cells incubated for 48 hrs by sulforhodamine B assay; details: MDA-MB-435, 48 h
SK-MEL-2 = assay: Growth inhibition of human SK-MEL-2 cells incubated for 48 hrs by sulforhodamine B assay; details: SK-MEL-2, 48 h
SK-MEL-28 = assay: Growth inhibition of human SK-MEL-28 cells incubated for 48 hrs by sulforhodamine B assay; details: SK-MEL-28, 48 h
SK-MEL-5 = assay: Growth inhibition of human SK-MEL-5 cells incubated for 48 hrs by sulforhodamine B assay; details: SK-MEL-5, 48 h
UACC-62 = assay: Growth inhibition of human UACC62 cells incubated for 48 hrs by sulforhodamine B assay; details: UACC-62, 48 h
PC-3 = assay: Growth inhibition of human PC3 cells incubated for 48 hrs by sulforhodamine B assay; details: PC-3, 48 h
DU-145 = assay: Growth inhibition of human DU145 cells incubated for 48 hrs by sulforhodamine B assay; details: DU-145, 48 h
MCF7 = assay: Growth inhibition of human MCF7 cells incubated for 48 hrs by sulforhodamine B assay; details: MCF7, 48 h
MDA-MB-231 = assay: Growth inhibition of human MDA-MB-231 cells incubated for 48 hrs by sulforhodamine B assay; details: MDA-MB-231, 48 h
Hs-578T = assay: Growth inhibition of human Hs578T cells incubated for 48 hrs by sulforhodamine B assay
BT-549 = assay: Growth inhibition of human BT549 cells incubated for 48 hrs by sulforhodamine B assay; details: BT-549, 48 h
MDA-MB-468 = assay: Growth inhibition of human MDA-MB-468 cells incubated for 48 hrs by sulforhodamine B assay; details: MDA-MB-468, 48 h
CCRF-CEM = assay: Growth inhibition of human CCRF-CEM cells incubated for 48 hrs by sulforhodamine B assay
HL-60(TB) = assay: Growth inhibition of human HL-60(TB) cells incubated for 48 hrs by sulforhodamine B assay; details: HL-60, 48 h
K562 = assay: Growth inhibition of human K562 cells incubated for 48 hrs by sulforhodamine B assay; details: K562, 48 h
MOLT-4 = assay: Growth inhibition of human MOLT4 cells incubated for 48 hrs by sulforhodamine B assay; details: MOLT-4, 48 h
RPMI-8226 = assay: Growth inhibition of human RPMI8226 cells incubated for 48 hrs by sulforhodamine B assay; details: RPMI-8226, 48 h
SR = assay: Growth inhibition of human SR cells incubated for 48 hrs by sulforhodamine B assay

In the case of `CC(=O)O[C@H]1C(=O)[C@@]2(C)[C@H]([C@H](OC(=O)c3ccccc3)[C@]3(O)C[C@H](OC(=O)[C@H](O)[C@@H](NC(=O)c4ccccc4)c4ccccc4)C(C)=C1C3(C)C)[C@]1(OC(C)=O)CO[C@@H]1C[C@@H]2O` [PACLITAXEL], the GI50 (A549) is reported as 6.3 nM, the GI50 (EKVX) is reported as 79 nM and the GI50 (HOP-62) is reported as 19 nM. For the same compound, the GI50 (HOP-92) was 25 nM, the GI50 (NCI-H226) was 3.9 nM and the GI50 (NCI-H23) was 6.3 nM. The GI50 (NCI-H322M) was 12.5 nM, the GI50 (NCI-H460) was 6.3 nM and the GI50 (NCI-H522) was 15.8 nM. For the same compound, the GI50 (SF-268) was 5 nM, the GI50 (SF-295) was 25 nM and the GI50 (SF-539) was 5 nM. The GI50 (SNB-19) was 10 nM, the GI50 (SNB-75) was 7.9 nM and the GI50 (U-251) was 6.3 nM. It also gave a GI50 (786-0) of 39 nM, a GI50 (A498) of 7.9 nM and a GI50 (ACHN) of 158 nM. It also gave a GI50 (CAKI-1) of 158 nM, a GI50 (RXF 393) of 15.8 nM and a GI50 (SN12C) of 6.3 nM. The GI50 (TK-10) was 19.9 nM, the GI50 (UO-31) was 125 nM and the GI50 (COLO 205) was 7.9 nM. It also gave a GI50 (HCC 2998) of 1 nM, a GI50 (HCT-116) of 4 nM and a GI50 (HCT-15) of 125 nM. For the same compound, the GI50 (HT-29) was 5 nM, the GI50 (KM12) was 5 nM and the GI50 (SW-620) was 4 nM. It also gave a GI50 (IGROV-1) of 6.3 nM, a GI50 (OVCAR-3) of 4 nM and a GI50 (OVCAR-4) of 630 nM. The GI50 (OVCAR-5) was 7.9 nM, the GI50 (OVCAR-8) was 7.9 nM and the GI50 (NCI/ADR-RES) was 630 nM. For the same compound, the GI50 (SK-OV-3) was 6.3 nM, the GI50 (LOX IMVI) was 5 nM and the GI50 (Malme-3M) was 50 nM. The GI50 (M14) was 5 nM, the GI50 (MDA-MB-435) was 4 nM and the GI50 (SK-MEL-2) was 400 nM. For the same compound, the GI50 (SK-MEL-28) was 400 nM, the GI50 (SK-MEL-5) was 5 nM and the GI50 (UACC-62) was 5 nM. The GI50 (PC-3) was 6.3 nM, the GI50 (DU-145) was 6.3 nM and the GI50 (MCF7) was 4 nM. The GI50 (MDA-MB-231) was 12.5 nM, the GI50 (Hs-578T) was 5 nM and the GI50 (BT-549) was 4 nM. It also gave a GI50 (MDA-MB-468) of 12.5 nM, a GI50 (CCRF-CEM) of 5 nM and a GI50 (HL-60(TB)) of 4 nM. It also gave a GI50 (K562) of 6.3 nM, a GI50 (MOLT-4) of 5 nM and a GI50 (RPMI-8226) of 19.9 nM. It also gave a GI50 (SR) of 6.3 nM.
